Legend:
Type in all cases: in vivo
Wilsonomyces spp. = experiment: Efficacy against Coryneum blight affecting peach crop; conditions: Ipflufenoquin 4, Pyrimethanil 8.9, combination 4 + 8.9 fl oz/a; for % Severity on Fruit: untreated 69.9; for % Disease incidence on Fruit: untreated 100
Procedure: Experiments were carried out to evaluate the efficacy of the fungicidal combination of ipflufenoquin and pyrimethanil against Coryneum blight (Wilsonomyces spp.) affecting peach crop, as disclosed in Table 5.

Monilinia fructicola = experiment: Efficacy against brown rot affecting peach crop; conditions: Ipflufenoquin 4, Pyrimethanil 8.9, combination 4 + 8.9 fl oz/a; for % Severity on Fruit: untreated 63.8; for % Disease incidence on Fruit: untreated 96
Procedure: Experiments were carried out to evaluate the efficacy of the fungicidal combination of ipflufenoquin and pyrimethanil against brown rot (Monilinia fructicola) affecting peach crop, as disclosed in Table 4.

Cladosporium sp. = experiment: Efficacy against scab affecting pecan (nuts); conditions: untreated 33.8
Procedure: Experiments were carried out to evaluate the efficacy of the fungicidal combination of ipflufenoquin and pyrimethanil (both tank mix fungicidal combination and pre-mix formulation as disclosed in Example 1) against scab (Cladosporium sp.) affecting pecan (i.e., nuts), as disclosed in Table 6.

[1] = higher rates: Ipflufenoquin 5, Pyrimethanil 11.1, tank mix 5 + 11.1, pre-mix 12.5 fl oz/a
[2] = lower rates: Ipflufenoquin 4, Pyrimethanil 8.9, tank mix 4 + 8.9, pre-mix 10 fl oz/a

| Compound | % Severity on Fruit (Wilsonomyces spp.) | % Disease incidence on Fruit (Wilsonomyces spp.) | % Severity on Fruit (Monilinia fructicola) | % Disease incidence on Fruit (Monilinia fructicola) | % Severity on Nuts (Cladosporium sp.; [1]) | % Severity on Nuts (Cladosporium sp.; [2]) |
| --- | --- | --- | --- | --- | --- | --- |
| Cc1nc2c(F)c(F)ccc2cc1Oc1cccc(F)c1C(C)(C)O [Ipflufenoquin, 2-{2-[(7,8-difluoro-2-methyl-3-quinolyl)oxy]-6-fluorophenyl}propan-2-ol] | 6.9% | 36.8% | 20.3% | 42.5% | 6.7% | 8.4% |
| Cc1cc(C)nc(Nc2ccccc2)n1 [Pyrimethanil, N-(4,6-dimethylpyrimidin-2-yl) aniline] | 42.8% | 65.8% | 15.5% | 19.5% | 15.7% | 19.2% |

From US20230247995A1, “FUNGICIDAL COMBINATIONS” (UPL Corporation Limited, priority 2022, published 2023)
